Source: patent US20250332300A1 (priority 2024, published 2025)
Like-named read-outs stand apart in the source and are kept apart here.

Tests used:
[1] = assay type: physicochemical
Protocol: Radio-HPLC Analytical Method: Eluent A: Water+0.1% TFA; Eluent B: ACN+0.1% TFA; Column temperature: 25° C.; Flow: 1.0 mL/min; Column: […] Gradient: hold 10% B for 1 min, from 10 to 80% B in 8 min, hold 80% B for 2 min, from 80 to 15% B in 1 min. Radio-iTLC Analytical Method: […] For Lu-177 and Ga-68, the radiotracer-spotted iTLC plates were directly read in a radio-TLC scanner after developing in a sodium citrate 0.1M (pH 4.6) mobile phase. Rf([^177Lu/^68Ga]Lu/Ga-labeled compounds)=0.0-0.5 and Rf (unchelated ^177Lu^3+/^68Ga^3+)=0.5-1.0. The initial radiochemical purity of the [^177Lu]Lu-labeled compounds was analyzed by […] and […] and the stability in solution at 24° C. was evaluated after the end of synthesis by radio-HPLC.

human HER2 (23-652) [2] = biological target: T1, human HER2 (23-652) (Homo sapiens, UniProt P04626); assay: Surface plasmon resonance (SPR) for assessment of peptide affinity, human HER2; assay type: binding; design: towards human HER2 (23-652) and mouse HER2 (23-653); made in house; details: SPR, human HER2 extracellular domain, 25° C., 1:1 binding model; read-out: huHER2-SPR-ONC KD
Method in brief: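 Binding kinetics fitted from sensorgrams with 280 s peptide association then 3000 s dissociation (30 uL/min), using HER2 (23-652) either directly immobilized (SA/CM5) or anti-Fc-captured; 3 M magnesium chloride used for regeneration.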

mouse HER2 (23-653) [3] = biological target: T2, mouse HER2 (23-653) (Mus musculus, UniProt P70424); assay: TR-FRET competition assay for peptide potency, mouse HER2; assay type: binding; design: mouse HER2 (23-653) using a Cy5 labeled peptide as a probe; made in house; host or cells: mammalian cells; details: TR-FRET competition with Cy5 labeled peptide probe, 0.1 nM mouse HER2, 24 h incubation; read-out: moHER2 TR-FRET IC50
human HER2 (23-652) [4] = biological target: T1, human HER2 (23-652); assay: TR-FRET competition assay for peptide potency, human HER2; assay type: binding; design: towards human HER2 (23-652) and mouse HER2 (23-653); made in house; host or cells: mammalian cells; details: read-out: huHER2 TR-FRET IC50
human HER4 = human HER4 (Homo sapiens, UniProt Q15303); assay: SPR selectivity over close protein homologs, HER4; assay type: binding; details: protein homolog immobilized on a CM5 chip
human HER4, sequence (Q15303 26-1308): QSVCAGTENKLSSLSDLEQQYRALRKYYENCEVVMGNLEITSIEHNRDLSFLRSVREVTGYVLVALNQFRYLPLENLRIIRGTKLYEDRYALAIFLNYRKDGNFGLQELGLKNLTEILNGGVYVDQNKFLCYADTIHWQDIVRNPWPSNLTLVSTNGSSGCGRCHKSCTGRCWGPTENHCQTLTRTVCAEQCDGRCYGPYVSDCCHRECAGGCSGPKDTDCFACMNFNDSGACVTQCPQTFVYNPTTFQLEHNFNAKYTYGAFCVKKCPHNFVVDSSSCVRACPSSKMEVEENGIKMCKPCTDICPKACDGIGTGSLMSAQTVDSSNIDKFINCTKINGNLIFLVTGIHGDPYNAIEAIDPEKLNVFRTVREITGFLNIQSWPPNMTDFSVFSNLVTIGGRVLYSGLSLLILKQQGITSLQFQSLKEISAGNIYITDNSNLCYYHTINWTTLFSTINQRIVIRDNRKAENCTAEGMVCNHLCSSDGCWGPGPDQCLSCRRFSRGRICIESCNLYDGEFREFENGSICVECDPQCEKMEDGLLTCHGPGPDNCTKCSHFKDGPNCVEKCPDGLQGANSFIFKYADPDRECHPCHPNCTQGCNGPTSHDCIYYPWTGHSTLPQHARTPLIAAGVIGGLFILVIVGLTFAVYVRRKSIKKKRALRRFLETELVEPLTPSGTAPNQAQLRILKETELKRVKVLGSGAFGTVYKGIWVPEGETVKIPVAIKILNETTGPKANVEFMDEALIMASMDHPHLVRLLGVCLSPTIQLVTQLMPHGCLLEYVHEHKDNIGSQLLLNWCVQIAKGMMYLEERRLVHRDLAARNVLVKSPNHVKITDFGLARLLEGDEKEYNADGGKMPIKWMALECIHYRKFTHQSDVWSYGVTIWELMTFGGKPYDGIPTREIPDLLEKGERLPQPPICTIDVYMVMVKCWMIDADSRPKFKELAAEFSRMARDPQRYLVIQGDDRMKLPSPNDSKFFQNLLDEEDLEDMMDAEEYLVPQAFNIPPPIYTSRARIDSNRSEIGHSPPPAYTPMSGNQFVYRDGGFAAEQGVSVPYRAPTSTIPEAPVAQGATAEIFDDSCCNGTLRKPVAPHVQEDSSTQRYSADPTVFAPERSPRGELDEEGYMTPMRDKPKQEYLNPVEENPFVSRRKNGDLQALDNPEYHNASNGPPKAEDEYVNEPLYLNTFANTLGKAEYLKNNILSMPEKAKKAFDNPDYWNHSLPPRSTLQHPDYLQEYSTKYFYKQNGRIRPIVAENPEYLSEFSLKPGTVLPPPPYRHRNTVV

[5] = biological target: human Herstatin (a soluble truncated HER2 protein) (Homo sapiens, UniProt P04626); assay: SPR selectivity over close protein homologs, Herstatin; assay type: binding; details: protein homolog immobilized on a CM5 chip
mouse HER2 (23-653) [6] = biological target: T2, mouse HER2 (23-653); assay: Surface plasmon resonance (SPR) for assessment of peptide affinity, mouse HER2; assay type: binding; design: mouse HER2 (23-653) using a Cy5 labeled peptide as a probe; made in house; details: SPR, mouse HER2 extracellular domain, 25° C., 1:1 binding model; read-out: moHER2-SPR-ONC KD
Description: Each protein was immobilized either onto a SA sensorchip (Cytiva, BR-1005-31) or CM5 sensorchip (Cytiva, BR-1005-30) to a density of 800-2000 RU.
Target sequence in this assay (P70424 23-653): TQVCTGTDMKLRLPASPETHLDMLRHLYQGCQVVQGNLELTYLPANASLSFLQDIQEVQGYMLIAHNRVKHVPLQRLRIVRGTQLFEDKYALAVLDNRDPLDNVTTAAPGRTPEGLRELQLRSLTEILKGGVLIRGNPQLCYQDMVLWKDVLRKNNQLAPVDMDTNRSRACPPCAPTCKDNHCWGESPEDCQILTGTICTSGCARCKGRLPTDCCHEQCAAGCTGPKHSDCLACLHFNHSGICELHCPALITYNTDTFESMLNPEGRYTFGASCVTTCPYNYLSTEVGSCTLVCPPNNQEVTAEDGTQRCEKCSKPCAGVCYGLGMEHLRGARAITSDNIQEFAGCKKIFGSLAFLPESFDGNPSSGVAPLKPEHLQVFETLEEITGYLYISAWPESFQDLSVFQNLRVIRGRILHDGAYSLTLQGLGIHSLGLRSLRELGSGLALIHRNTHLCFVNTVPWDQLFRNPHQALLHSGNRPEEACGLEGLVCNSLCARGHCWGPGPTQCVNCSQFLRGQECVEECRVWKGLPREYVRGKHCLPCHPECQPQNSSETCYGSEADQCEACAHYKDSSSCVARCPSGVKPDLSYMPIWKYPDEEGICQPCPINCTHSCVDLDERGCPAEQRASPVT

human EGFR = human EGFR (Homo sapiens, UniProt P00533); assay: SPR selectivity over close protein homologs, EGFR; assay type: binding; details: protein homolog immobilized on a CM5 chip
human EGFR, sequence (P00533 25-1210): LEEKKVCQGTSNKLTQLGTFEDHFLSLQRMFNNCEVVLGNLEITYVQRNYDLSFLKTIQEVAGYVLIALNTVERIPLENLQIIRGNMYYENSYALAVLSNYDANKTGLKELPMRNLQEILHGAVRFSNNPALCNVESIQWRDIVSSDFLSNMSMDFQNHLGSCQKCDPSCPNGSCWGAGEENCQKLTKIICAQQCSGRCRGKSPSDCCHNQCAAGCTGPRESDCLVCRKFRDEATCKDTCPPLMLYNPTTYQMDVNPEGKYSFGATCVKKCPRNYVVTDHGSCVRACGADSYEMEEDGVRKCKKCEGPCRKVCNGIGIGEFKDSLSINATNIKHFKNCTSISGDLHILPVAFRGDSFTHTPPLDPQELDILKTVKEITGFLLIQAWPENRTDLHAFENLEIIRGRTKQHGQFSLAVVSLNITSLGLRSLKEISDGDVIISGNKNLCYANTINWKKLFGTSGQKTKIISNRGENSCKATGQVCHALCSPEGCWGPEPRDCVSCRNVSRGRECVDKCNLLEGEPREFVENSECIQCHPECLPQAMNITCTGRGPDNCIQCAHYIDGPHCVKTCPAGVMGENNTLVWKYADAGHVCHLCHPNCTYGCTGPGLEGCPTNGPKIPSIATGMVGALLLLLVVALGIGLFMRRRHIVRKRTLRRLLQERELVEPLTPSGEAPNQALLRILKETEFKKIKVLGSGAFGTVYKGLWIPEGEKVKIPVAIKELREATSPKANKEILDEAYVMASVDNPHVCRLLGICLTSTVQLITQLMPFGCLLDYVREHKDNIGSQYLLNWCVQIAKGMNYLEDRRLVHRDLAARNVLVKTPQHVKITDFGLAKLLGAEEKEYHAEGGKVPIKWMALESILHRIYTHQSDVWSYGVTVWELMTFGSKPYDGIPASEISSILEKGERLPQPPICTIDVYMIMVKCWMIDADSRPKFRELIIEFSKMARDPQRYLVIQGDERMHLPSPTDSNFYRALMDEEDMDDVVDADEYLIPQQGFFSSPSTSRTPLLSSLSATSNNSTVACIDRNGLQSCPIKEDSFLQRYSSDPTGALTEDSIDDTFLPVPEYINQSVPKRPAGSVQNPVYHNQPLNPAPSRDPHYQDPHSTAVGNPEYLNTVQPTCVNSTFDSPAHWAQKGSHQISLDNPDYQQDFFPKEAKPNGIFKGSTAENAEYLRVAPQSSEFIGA

human HER3 = human HER3 (Homo sapiens, UniProt P21860); assay: SPR selectivity over close protein homologs, HER3; assay type: binding; details: protein homolog immobilized on a CM5 chip
human HER3, sequence (P21860 20-1342): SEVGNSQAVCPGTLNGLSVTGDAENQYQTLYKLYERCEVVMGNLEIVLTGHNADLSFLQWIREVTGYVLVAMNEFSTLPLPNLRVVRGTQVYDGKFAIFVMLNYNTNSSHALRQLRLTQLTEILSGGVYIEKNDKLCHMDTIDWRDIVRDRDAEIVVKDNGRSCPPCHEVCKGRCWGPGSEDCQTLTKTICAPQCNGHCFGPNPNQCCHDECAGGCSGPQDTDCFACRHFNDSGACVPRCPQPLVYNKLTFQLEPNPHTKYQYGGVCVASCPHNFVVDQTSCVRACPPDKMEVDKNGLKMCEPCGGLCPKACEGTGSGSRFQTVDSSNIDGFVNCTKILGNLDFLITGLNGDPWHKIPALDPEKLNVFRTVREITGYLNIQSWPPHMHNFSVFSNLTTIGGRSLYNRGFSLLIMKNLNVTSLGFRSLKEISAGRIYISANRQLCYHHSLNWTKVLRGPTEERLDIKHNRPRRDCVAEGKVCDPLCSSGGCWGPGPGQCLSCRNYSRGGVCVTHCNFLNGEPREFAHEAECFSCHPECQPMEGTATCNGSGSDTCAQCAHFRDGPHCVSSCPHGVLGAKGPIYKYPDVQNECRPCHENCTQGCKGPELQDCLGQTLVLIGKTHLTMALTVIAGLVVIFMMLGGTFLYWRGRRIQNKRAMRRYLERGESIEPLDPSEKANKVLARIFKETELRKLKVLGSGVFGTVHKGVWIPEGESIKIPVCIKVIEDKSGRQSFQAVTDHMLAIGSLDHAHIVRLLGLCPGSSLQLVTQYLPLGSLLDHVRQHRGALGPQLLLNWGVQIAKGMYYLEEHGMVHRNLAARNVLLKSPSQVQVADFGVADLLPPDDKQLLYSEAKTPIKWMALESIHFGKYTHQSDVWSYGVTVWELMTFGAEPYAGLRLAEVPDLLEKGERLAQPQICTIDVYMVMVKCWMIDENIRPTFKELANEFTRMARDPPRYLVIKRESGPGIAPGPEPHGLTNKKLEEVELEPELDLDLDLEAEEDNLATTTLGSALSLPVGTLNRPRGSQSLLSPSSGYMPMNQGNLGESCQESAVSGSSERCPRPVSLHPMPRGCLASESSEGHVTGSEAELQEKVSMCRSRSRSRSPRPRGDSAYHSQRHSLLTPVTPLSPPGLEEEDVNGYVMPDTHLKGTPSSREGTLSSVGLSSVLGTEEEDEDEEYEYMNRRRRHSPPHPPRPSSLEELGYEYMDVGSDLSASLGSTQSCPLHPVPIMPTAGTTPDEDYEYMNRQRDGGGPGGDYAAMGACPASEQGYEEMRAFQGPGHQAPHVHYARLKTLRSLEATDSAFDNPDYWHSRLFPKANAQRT

[7] = amide bond, 30-membered ring, PyAOP/DIEA, DMF, resin, […], 50.0 °C, with chain assembly

| Compound | Kd (human HER2 (23-652) [2]) [µM] | IC50 (mouse HER2 (23-653) [3]) [µM] | IC50 (human HER2 (23-652) [4]) [µM] | Kd (human HER4) [µM] | Kd [5] [µM] | Kd (mouse HER2 (23-653) [6]) [µM] | Kd (human EGFR) [µM] | Kd (human HER3) [µM] | further results |
| --- | --- | --- | --- | --- | --- | --- | --- | --- | --- |
| CC(=O)NCCCC[C@H]1C(=O)N[C@@H](Cc2c[nH]c3ccc(O)cc23)C(=O)N[C@@H](Cc2c[nH]c3ccccc23)C(=O)N[C@@H](C2CC2)C(=O)N(C)[C@H](C(=O)N(C)[C@@H](Cc2ccc(F)cc2)C(=O)N[C@@H](CCCCNC(=O)CN2CCN(CC(=O)O)CCN(CC(=O)O)CCN(CC(=O)O)CC2)C(N)=O)CNC(=O)CCC[C@H](NC(C)=O)C(=O)N[C@H](Cc2ccc(O)cc2)C(=O)N[C@H](CO)C(=O)N(C)[C@@H](CCc2ccccc2)C(=O)N1C [Example H4, Example B4 labelled with ^177Lu, metal not drawn] |  |  |  |  |  |  |  |  | Radiochemical purity by radio-HPLC, stability in solution, 5 h (%) [1]: 98.6%; Radiochemical purity by radio-HPLC, stability in solution, 24 h (%) [1]: 98.2%; Radiochemical purity by radio-HPLC, stability in solution, 48 h (%) [1]: 97.6%; Radiochemical purity by radio-HPLC, stability in solution, 72 h (%) [1]: 97.8% |
| COCCOCCOCCOCCOCCOCCOCCOCCOCCOCCOCCOCCC(=O)N[C@H]1CCCC(=O)NC[C@@H](C(=O)N(C)[C@@H](Cc2ccc(F)cc2)C(=O)N[C@@H](CCCCNC(=O)CN2CCN(CC(=O)O)CCN(CC(=O)O)CCN(CC(=O)O)CC2)C(N)=O)N(C)C(=O)[C@H](C2CC2)NC(=O)[C@H](Cc2c[nH]c3ccccc23)NC(=O)[C@H](Cc2c[nH]c3ccc(O)cc23)NC(=O)[C@H](CCCCNC(C)=O)N(C)C(=O)[C@H](CCc2ccccc2)N(C)C(=O)[C@H](CO)NC(=O)[C@H](Cc2ccc(O)cc2)NC1=O [Example B2] | < 0.0001 | 0.0002 | < 0.0001 | > 6 | > 6 | 0.0001 | > 6 | > 6 |  |
| 2-((1E,3E)-5-((E)-1-(6-(((S)-5-((S)-2-((3S,6S,9S,12S,15S,18S,21S,24S,27S)-9-((1H-indol-3-yl)methyl)-27-acetamido-15-(4-acetamidobutyl)-12-((5-hydroxy-1H-indol-3-yl)methyl)-24-(4-hydroxybenzyl)-6-((S)-1-hydroxyethyl)-21-(hydroxymethyl)-N,4,16,19-tetramethyl-5,8,11,14,17,20,23,26,30-nonaoxo-18-phenethyl-1,4,7,10,13,16,19,22,25-nonaazacyclotriacontane-3-carboxamido)-3-(4-fluorophenyl)propanamido)-6-amino-6-oxohexyl)amino)-6-oxohexyl)-3,3-dimethyl-5-sulfoindolin-2-ylidene)penta-1,3-dien-1-yl)-1-ethyl-3,3-dimethyl-3H-indol-1-ium-5-sulfonate |  |  |  |  |  |  |  |  | ring closure, yield after HPLC [7]: 1.7% |
| CC(=O)NCCCC[C@H]1C(=O)N[C@@H](Cc2c[nH]c3ccc(O)cc23)C(=O)N[C@@H](Cc2c[nH]c3ccccc23)C(=O)N[C@@H](C2CC2)C(=O)N(C)[C@H](C(=O)N(C)[C@@H](Cc2ccc(F)cc2)C(=O)N[C@@H](CCCCNC(=O)CN2CCN(CC(=O)O)CCN(CC(=O)O)CCN(CC(=O)O)CC2)C(N)=O)CNC(=O)CCC[C@H](NC(C)=O)C(=O)N[C@H](Cc2ccc(O)cc2)C(=O)N[C@H](CO)C(=O)N(C)[C@@H](CCc2ccccc2)C(=O)N1C [Example B4] | > 6 | > 1 | > 1 | > 6 | > 6 | > 6 | > 6 | > 6 |  |
| 2-(4-(((11S,48S)-48-((S)-2-((3S,6S,9S,12S,15S,18S,21S,24S,27S)-9-((1H-indol-3-yl)methyl)-27-acetamido-15-(4-acetamidobutyl)-12-((5-hydroxy-1H-indol-3-yl)methyl)-24-(4-hydroxybenzyl)-6-((S)-1-hydroxyethyl)-21-(hydroxymethyl)-N,4,16,19-tetramethyl-5,8,11,14,17,20,23,26,30-nonaoxo-18-phenethyl-1,4,7,10,13,16,19,22,25-nonaazacyclotriacontane-3-carboxamido)-3-(4-fluorophenyl)propanamido)-11-carbamoyl-5,13,47-trioxo-1-((3aS,4S,6aR)-2-oxohexahydro-1H-thieno[3,4-d]imidazol-4-yl)-16,19,22,25,28,31,34,37,40,43-decaoxa-6,12,46-triazadopentacontan-52-yl) carbamoyl) piperazin-1-yl) acetic acid TFA salt |  |  |  |  |  |  |  |  | ring closure, yield after HPLC [7]: 1.9% |
| (4R,7S,10S,13S,16S,19S,22S,25S,28R)-10-((1H-indol-3-yl)methyl)-28-amino-N—((S)-1-amino-3-(4-fluorophenyl)-1-oxopropan-2-yl)-7-cyclopropyl-13-((5-hydroxy-1H-indol-3-yl)methyl)-25-(4-hydroxybenzyl)-16,22-bis(hydroxymethyl)-N,5,17,20-tetramethyl-6,9,12,15,18,21,24,27-octaoxo-19-phenethyl-1,2-dithia-5,8,11,14,17,20,23,26-octaazacyclononacosane-4-carboxamide TFA salt |  |  |  |  |  |  |  |  | ring closure, yield after HPLC (disulfide bond, 29-membered ring, DMSO (air), DMSO/water 1/4, 1.88 mM, […]): 26% |
| 4-(((3S,6S,9S,12S,15S,18S,21S,24S,27S)-9-((1H-indol-3-yl)methyl)-15-(4-acetamidobutyl)-6-cyclopropyl-3-(((S)-1-(((S)-1,6-diamino-1-oxohexan-2-yl)amino)-3-(4-fluorophenyl)-1-oxopropan-2-yl)(methyl)carbamoyl)-12-((5-hydroxy-1H-indol-3-yl)methyl)-24-(4-hydroxybenzyl)-21-(hydroxymethyl)-4,16,19-trimethyl-5,8,11,14,17,20,23,26,31-nonaoxo-18-phenethyl-1,4,7,10,13,16,19,22,25-nonaazacyclohentriacontan-27-yl)amino)-4-oxobutanoic acid TFA salt |  |  |  |  |  |  |  |  | ring closure, yield after HPLC (amide bond, 31-membered ring, PyAOP/Et3N, then TFA, DCM, 0.79 mM, 2 steps): 61% |
| HOOC(CH2)4CO-Tyr-Ser-MehPhe-MeLys(Ac)-Trp(5-OH)-Trp-Gly(cPr)-MeDap-MePhe(4-F)-Lys(Boc)-NH2? |  |  |  |  |  |  |  |  | ring closure, yield after HPLC (the molecule shown is the open-chain precursor, amide bond, 31-membered ring, PyAOP/Et3N, DCM, 0.52 mM): 51% |
| CC(=O)NCCCC[C@H]1C(=O)N[C@@H](Cc2c[nH]c3ccc(O)cc23)C(=O)N[C@@H](Cc2c[nH]c3ccccc23)C(=O)N[C@@H](C2CC2)C(=O)N(C)[C@H](C(=O)N(C)[C@@H](Cc2ccc(F)cc2)C(=O)N[C@@H](CCCCNC(=O)CN2CCN(CC(=O)O)CCN(CC(=O)O)CCN(CC(=O)O)CC2)C(N)=O)CNC(=O)CCC[C@H](NC(C)=O)C(=O)N[C@@H](Cc2ccc(O)cc2)C(=O)N[C@@H](CO)C(=O)N(C)[C@@H](CCc2ccccc2)C(=O)N1C [Example B1] | < 0.0001 | < 0.0001 | < 0.0001 | > 6 | > 6 | < 0.0001 | > 6 | > 6 |  |
| ((S)-2-((3S,6S,9S,12S,15S,18S,21S,24S,27S)-9-((1H-indol-3-yl)methyl)-27-acetamido-15-(4-acetamidobutyl)-6-cyclopropyl-12-((5-hydroxy-1H-indol-3-yl)methyl)-24-(4-hydroxybenzyl)-21-(hydroxymethyl)-N,4,16,19-tetramethyl-5,8,11,14,17,20,23,26,31-nonaoxo-18-phenethyl-1,4,7,10,13,16,19,22,25-nonaazacyclohentriacontane-3-carboxamido)-3-(4-fluorophenyl) propanoyl)-L-lysine TFA Salt |  |  |  |  |  |  |  |  | ring closure, yield after HPLC (amide bond, 31-membered ring, HATU/DIEA, DMF, resin, 10.0 mM, with chain assembly): 2.4% |
